For 44 molecules, IC50 results are on record in ChEMBL document CHEMBL3886972, “Chemical entities” (2016).

In experiment [1] the target is PI3-kinase p110-alpha/p85-alpha (Homo sapiens, UniProt P42336). Description: null: The kinase activity was measured by using the commercial ADP Hunter Plus assay available from DiscoveRx (#33-016), which is a homogeneous assay to measure the accumulation of ADP, a universal product of kinase activity. […] The reaction was carried out for 1 hour at 25° C. Reagent A and B were sequentially added to the wells and plates were incubated for 30 min at 37° C. Fluorescence counts were read in a Victor instrument (Perkin Elmer) with the recommended settings (544 and 580 nm as excitation and emission wavelengths, respectively). It is filed as protein-complex assay.

In experiment [2] the target is DNA-dependent protein kinase catalytic subunit (Homo sapiens, UniProt P78527). Nature of the experiment: ADP Hunter Plus Assay: The kinase activity was measured by using the commercial ADP Hunter Plus assay available from DiscoveRx (#90-0083), which is a homogeneous assay to measure the accumulation of ADP, a universal product of kinase activity. The enzyme, DNA-PK was purchased from Promega (#V5811). The assay was done following the manufacturer recommendations with slight modifications: Mainly the kinase buffer was replace by 15 mM HEPES, pH 7.5, 10 mM MgCl2, 20 mM NaCl, 1 mM EGTA, 0.1 mg/mL BGG, 0.02% Tween 20. The DNA-PK was assayed in a titration experiment to determine the optimal protein concentration for the inhibition assay. To calculate the […] of the Compounds, serial 1:3 dilutions of the compounds were added to the enzyme at a fixed concentration (2 U/uL). The enzyme was preincubated with the inhibitor and 200 uM DNA substrate and then ATP was added to a final 75 uM concentration. Reaction was carried out for 1 hour at 37° C. Reagent A and B were sequentially added to the wells and plates were incubated for 30 min at RT. Fluorescence counts were read in a EnVision instrument (Perkin Elmer) with the recommended settings (550 and 590 nm as excitation and emission wavelengths, respectively).
Chain of DNA-dependent protein kinase catalytic subunit (P78527 whole entry): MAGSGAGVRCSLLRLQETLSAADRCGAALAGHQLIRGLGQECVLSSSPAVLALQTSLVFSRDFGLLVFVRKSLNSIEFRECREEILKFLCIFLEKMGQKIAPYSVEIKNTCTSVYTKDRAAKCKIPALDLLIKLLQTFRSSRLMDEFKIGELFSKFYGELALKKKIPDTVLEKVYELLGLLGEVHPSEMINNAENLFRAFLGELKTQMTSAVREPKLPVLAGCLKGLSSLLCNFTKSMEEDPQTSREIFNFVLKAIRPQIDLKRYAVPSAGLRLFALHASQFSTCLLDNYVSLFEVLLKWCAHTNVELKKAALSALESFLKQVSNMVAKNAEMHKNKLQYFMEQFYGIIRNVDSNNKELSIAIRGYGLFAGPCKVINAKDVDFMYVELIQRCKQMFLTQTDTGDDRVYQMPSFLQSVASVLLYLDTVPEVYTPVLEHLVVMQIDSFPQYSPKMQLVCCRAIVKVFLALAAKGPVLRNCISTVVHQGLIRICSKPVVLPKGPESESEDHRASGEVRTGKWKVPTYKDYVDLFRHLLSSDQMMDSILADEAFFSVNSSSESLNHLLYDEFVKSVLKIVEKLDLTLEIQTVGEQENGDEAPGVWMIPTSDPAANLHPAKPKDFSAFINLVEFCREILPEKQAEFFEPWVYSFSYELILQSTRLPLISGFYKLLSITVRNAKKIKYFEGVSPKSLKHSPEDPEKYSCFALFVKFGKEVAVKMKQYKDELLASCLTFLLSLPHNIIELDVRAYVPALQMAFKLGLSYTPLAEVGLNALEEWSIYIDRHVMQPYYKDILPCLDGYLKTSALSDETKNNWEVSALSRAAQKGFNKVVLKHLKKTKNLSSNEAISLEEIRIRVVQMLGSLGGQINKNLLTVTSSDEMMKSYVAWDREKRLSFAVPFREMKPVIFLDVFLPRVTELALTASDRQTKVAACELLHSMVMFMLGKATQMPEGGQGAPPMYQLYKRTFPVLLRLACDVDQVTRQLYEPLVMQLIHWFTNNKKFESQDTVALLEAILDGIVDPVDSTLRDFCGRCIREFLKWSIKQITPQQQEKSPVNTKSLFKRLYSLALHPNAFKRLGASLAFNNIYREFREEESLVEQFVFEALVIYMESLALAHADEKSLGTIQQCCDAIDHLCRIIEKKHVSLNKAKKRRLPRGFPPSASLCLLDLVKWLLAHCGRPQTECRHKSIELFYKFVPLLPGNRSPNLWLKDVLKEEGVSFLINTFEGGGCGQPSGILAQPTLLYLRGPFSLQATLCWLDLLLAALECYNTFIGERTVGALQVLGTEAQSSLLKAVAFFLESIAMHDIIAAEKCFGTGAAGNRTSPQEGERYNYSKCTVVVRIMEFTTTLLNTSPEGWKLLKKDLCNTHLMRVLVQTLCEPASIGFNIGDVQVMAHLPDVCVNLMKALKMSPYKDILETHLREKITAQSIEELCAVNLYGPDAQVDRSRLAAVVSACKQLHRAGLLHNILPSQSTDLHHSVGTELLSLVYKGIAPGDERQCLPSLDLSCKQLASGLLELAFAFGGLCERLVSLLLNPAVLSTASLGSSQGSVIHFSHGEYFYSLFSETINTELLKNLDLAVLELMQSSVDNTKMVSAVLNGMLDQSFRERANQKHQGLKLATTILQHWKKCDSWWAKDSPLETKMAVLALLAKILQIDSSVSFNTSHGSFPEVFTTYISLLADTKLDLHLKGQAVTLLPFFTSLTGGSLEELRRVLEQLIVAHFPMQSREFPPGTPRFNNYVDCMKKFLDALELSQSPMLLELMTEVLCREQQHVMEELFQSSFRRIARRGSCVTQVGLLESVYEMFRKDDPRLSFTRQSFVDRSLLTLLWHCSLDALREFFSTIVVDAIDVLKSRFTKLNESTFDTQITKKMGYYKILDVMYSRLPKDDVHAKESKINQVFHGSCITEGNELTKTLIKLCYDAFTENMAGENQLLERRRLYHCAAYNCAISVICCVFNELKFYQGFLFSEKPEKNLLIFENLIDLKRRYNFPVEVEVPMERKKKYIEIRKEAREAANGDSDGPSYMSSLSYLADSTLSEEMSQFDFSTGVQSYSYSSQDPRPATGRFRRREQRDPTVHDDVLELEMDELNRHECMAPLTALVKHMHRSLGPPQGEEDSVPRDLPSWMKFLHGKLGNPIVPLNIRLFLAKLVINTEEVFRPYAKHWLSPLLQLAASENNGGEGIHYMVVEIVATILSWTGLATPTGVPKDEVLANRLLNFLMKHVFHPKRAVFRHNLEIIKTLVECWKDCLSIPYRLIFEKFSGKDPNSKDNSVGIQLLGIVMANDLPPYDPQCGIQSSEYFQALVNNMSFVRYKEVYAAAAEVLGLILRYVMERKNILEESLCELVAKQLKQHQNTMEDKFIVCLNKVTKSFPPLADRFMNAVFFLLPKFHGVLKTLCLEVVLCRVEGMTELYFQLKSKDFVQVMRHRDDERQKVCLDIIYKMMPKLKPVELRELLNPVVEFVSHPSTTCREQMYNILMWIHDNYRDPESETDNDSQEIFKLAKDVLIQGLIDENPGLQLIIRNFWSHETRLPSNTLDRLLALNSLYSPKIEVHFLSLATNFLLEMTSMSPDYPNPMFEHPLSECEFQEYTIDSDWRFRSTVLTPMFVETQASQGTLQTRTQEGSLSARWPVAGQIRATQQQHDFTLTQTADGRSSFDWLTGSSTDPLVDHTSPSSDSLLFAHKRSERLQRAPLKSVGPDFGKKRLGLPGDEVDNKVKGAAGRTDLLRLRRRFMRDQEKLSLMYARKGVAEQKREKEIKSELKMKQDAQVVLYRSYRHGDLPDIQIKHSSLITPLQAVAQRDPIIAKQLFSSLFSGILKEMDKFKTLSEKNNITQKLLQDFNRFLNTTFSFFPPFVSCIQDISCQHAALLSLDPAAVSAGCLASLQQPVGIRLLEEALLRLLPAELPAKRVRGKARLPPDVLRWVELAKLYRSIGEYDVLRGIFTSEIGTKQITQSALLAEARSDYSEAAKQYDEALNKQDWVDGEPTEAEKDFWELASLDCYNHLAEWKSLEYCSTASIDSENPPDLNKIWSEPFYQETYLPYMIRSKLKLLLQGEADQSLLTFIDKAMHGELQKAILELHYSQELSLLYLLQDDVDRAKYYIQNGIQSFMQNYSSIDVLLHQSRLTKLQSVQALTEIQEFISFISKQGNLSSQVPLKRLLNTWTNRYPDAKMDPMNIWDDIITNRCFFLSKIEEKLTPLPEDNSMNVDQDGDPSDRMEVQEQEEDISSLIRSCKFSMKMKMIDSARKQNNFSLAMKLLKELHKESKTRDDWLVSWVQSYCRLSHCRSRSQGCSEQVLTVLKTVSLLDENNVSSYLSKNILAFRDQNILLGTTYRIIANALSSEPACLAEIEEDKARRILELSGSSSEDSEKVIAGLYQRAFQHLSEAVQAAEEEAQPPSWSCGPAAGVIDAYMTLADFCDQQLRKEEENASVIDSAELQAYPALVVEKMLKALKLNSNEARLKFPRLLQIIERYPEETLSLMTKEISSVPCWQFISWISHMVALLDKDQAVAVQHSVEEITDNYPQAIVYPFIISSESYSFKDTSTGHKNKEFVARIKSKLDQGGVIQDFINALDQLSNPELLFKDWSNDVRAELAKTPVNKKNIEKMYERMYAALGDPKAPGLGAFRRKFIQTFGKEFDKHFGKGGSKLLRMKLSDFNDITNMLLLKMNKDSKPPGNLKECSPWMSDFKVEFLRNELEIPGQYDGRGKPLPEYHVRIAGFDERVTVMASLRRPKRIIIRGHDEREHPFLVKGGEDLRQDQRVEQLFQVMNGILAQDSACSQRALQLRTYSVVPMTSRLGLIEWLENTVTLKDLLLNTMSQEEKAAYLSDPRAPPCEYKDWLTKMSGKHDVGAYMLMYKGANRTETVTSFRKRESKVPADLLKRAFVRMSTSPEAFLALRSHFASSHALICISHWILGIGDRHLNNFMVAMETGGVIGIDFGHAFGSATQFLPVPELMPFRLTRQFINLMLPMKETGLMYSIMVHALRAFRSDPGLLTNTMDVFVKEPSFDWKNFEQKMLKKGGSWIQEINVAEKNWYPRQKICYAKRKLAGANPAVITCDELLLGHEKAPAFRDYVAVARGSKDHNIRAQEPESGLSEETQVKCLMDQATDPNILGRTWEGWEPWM

Structures are written as SMILES.

As a reminder, the IC50 is the concentration that gives 50% inhibition. In the case of `CNc1nc2cc(Cl)ccc2n1-c1nc2c(c(C3(S(C)(=O)=O)CCC3)n1)OC[C@@H]1COCCN21`, the half-maximal inhibitory concentration (IC50) in experiment [1] is at least 50 µM; in experiment [2], 10 µM. For `CS(=O)(=O)C1(c2nc(-c3cncc4[nH]ccc34)nc3c2OCC2COCCN32)CCOCC1` (stereo not given) the same measures were 2 µM and at least 25 µM. Turning to `CCOC(=O)N1CCC(c2nc(-c3cccc4[nH]ccc34)nc3c2OC[C@@H]2COCCN32)(S(C)(=O)=O)CC1`, the 50% inhibitory concentration (IC50) in experiment [1] was 7.38 µM; in experiment [2] it was 10 µM. Take `CS(=O)(=O)Cc1nc(-c2cccc3[nH]ccc23)nc2c1OCC1COCCN21` (stereo not given): the figures for the IC50 in experiment [1] and in experiment [2] were 6.6 µM and 10 µM, respectively. In the case of `CS(=O)(=O)C1(c2nc(-c3ccnc4[nH]ccc34)nc3c2OCC2COCCN32)CCOCC1` (stereo not given), the IC50 in experiment [1] was 8.5 µM; in experiment [2], 10 µM. In the case of `Cc1cc2c(-c3nc4c(c(C5(S(C)(=O)=O)CCOCC5)n3)OCC3COCCN43)cccc2[nH]1` (stereo not given), the values for the IC50 in experiment [1] and in experiment [2] were 10.3 µM and at least 25 µM, respectively. Consider `CC1(c2nc(-c3cccc4[nH]ccc34)nc3c2OCC2COCCN32)CCCS1(=O)=O` (stereo not given), for which the IC50 in experiment [1] was 6.9 µM; in experiment [2], 10 µM. Consider `CNc1nc2ccccc2n1-c1nc2c(c(C(C)(C)[S@TB1](C)(=O)=O)n1)OCCC1COCCN21` (stereo not given), for which the IC50 in experiment [2] is 1.88 µM. As for `O=S(=O)(Cc1nc(-c2cccc3[nH]ccc23)nc2c1OCC1COCCN21)C(F)(F)F` (stereo not given), the half-inhibitory concentration (IC50) is 14.9 µM in experiment [1] and at least 25 µM in experiment [2]. Regarding `CNc1nc2ccccc2n1-c1nc2c(c(C3(S(C)(=O)=O)CCOCC3)n1)OCC1COCCN21` (stereo not given), the IC50 in experiment [1] is at least 50 µM; in experiment [2] it was 10 µM.

`CS(=O)(=O)C1(c2nc(-c3cccc4[nH]ccc34)nc3c2OCC2COCCN32)CCOCC1` (stereo not given): in experiment [1], the IC50 came to 13.3 µM. `CC(C)(c1nc(-c2cccc3[nH]ccc23)nc2c1OCC[C@H]1COCCN21)S(C)(=O)=O`: in experiment [1], the IC50 amounted to 19.3 µM. For the molecule `CNc1nc2ccccc2n1-c1nc2c(c(C(C)(C)O)n1)OCC1COCCN21` (stereo not given), the IC50 in experiment [1] is 2.17 µM; in experiment [2], 3.18 µM. For the molecule `CC(C)(c1nc(-c2c(F)ccc3[nH]ccc23)nc2c1OCC1COCCN21)S(C)(=O)=O` (stereo not given), the 50% inhibitory concentration (IC50) in experiment [1] is 7.9 µM. Consider `COc1ccc(-c2nc3c(c(C4(S(C)(=O)=O)CCOCC4)n2)OCC2COCCN32)c2cc[nH]c12` (stereo not given), for which the IC50 was 16.9 µM in experiment [1] and at least 25 µM in experiment [2]. For `CS(=O)(=O)C1(c2nc(-c3cccc4[nH]ccc34)nc3c2OC[C@@H]2COCCN32)CCOCC1`, in experiment [1], the IC50 came to 4.9 µM. On to `CC(C)(O)c1nc(-c2cc(F)cc3[nH]ccc23)nc2c1OC[C@@H]1COCCN21`, for which the figures for the IC50 in experiment [1] and in experiment [2] were 2.27 µM and 0.886 µM, respectively. Take `CS(=O)(=O)C1(c2nc(-c3cccc4[nH]ccc34)nc3c2OCC2COCCN32)CC1` (stereo not given): the IC50 was 2.5 µM in experiment [1] and at least 25 µM in experiment [2].

With `C[S@TB17](=O)(=O)Nc1nc(-c2cccc3[nH]ccc23)nc2c1OCC1COCCN21` (stereo not given), the figures for the IC50 in experiment [1] and in experiment [2] were 6.95 µM and 10 µM, respectively. `CC(C)(c1nc(-c2ccnc3[nH]ccc23)nc2c1OCC1COCCN21)S(C)(=O)=O` (stereo not given): the values for the IC50 in experiment [1] and in experiment [2] were 0.67 µM and 2.82 µM, respectively. As to `CS(=O)(=O)C1(c2nc(-c3cc(F)cc4[nH]ccc34)nc3c2OCC2COCCN32)CCOCC1` (stereo not given), the IC50 in experiment [1] was 6 µM; in experiment [2], 10 µM. In the case of `CNc1nc2ccccc2n1-c1nc2c(c(C(C)(C)S(C)(=O)=O)n1)OCC1COCCN21` (stereo not given), the IC50 in experiment [1] was 2.8 µM. Take `c1cc(-c2nc(-c3cccc4[nH]ccc34)c3c(n2)N2CCOCC2CO3)c2cc[nH]c2c1` (stereo not given): the results for the IC50 in experiment [1] and in experiment [2] were 6.55 µM and 10 µM, respectively. Consider `CS(=O)(=O)c1cccc(-c2nc(-c3cccc4[nH]ccc34)nc3c2OCC2COCCN32)c1` (stereo not given), for which the IC50 is 10.6 µM in experiment [1] and 5.04 µM in experiment [2]. On to `COc1cc(-c2nc3c(c(C4([S@TB1](C)(=O)=O)CCOCC4)n2)OCCC2COCCN32)c2cc[nH]c2c1` (stereo not given), for which the IC50 in experiment [1] is 23.3 µM; in experiment [2], at least 25 µM. Consider `COc1cc(-c2nc3c(c(C4(S(C)(=O)=O)CCOCC4)n2)OCC2COCCN32)c2cc[nH]c2c1` (stereo not given), for which the IC50 in experiment [1] was 5 µM; in experiment [2] it was 10 µM. The like results for `C[S@TB17](=O)(=O)C1(c2nc(-c3cc(F)cc4[nH]ccc34)nc3c2OCCC2COCCN32)CCOCC1` (stereo not given) were, in that order, over 10 µM and at least 25 µM. `CC(C)(C#N)c1nc(-c2cccc3[nH]ccc23)nc2c1OCC1COCCN21` (stereo not given): the values for the IC50 in experiment [1] and in experiment [2] were 1.67 µM and 10 µM, respectively. Turning to `CS(=O)(=O)C1(c2nc(-c3c(F)ccc4[nH]ccc34)nc3c2OCC2COCCN32)CCOCC1` (stereo not given), the half-inhibitory concentration (IC50) was 21 µM in experiment [1] and 10 µM in experiment [2]. For the molecule `CC(C)Nc1nc2ccccc2n1-c1nc2c(c(C(C)(C)S(C)(=O)=O)n1)OC[C@@H]1COCCN21`, the IC50 in experiment [1] is 6.61 µM; in experiment [2] it was 4.3 µM.

With `CC(C)(c1nc(-c2cccc3[nH]ccc23)nc2c1OCC1COCCN21)S(C)(=O)=O` (stereo not given), the concentration for half-maximal inhibition (IC50) in experiment [1] was 1.7 µM; in experiment [2], 17.3 µM. Consider `CNc1nc2ccc(Cl)cc2n1-c1nc2c(c(C3(S(C)(=O)=O)CCC3)n1)OC[C@@H]1COCCN21`, for which the IC50 in experiment [1] was at least 50 µM; in experiment [2], 10 µM. Regarding `CC(C)(c1nc(-c2cccc3[nH]ccc23)nc2c1OCC1COCCN21)S(=O)(=O)C1CC1` (stereo not given), the IC50 in experiment [1] stood at 2.4 µM. Take `CC(C)(O)c1nc(-c2cccc3[nH]ccc23)nc2c1OCC1COCCN21` (stereo not given): the IC50 in experiment [1] is 2.39 µM; in experiment [2], 7.21 µM. For `CCNc1nc2ccccc2n1-c1nc2c(c(C(C)(C)S(C)(=O)=O)n1)OC[C@@H]1COCCN21`, the results for the IC50 in experiment [1] and in experiment [2] were 2.65 µM and 0.196 µM, respectively. In the case of `CN1CCC(c2nc(-c3cccc4[nH]ccc34)nc3c2OCC2COCCN32)(S(C)(=O)=O)CC1` (stereo not given), the half-inhibitory concentration (IC50) in experiment [1] was 12.5 µM; in experiment [2], at least 25 µM. Turning to `CS(=O)(=O)C1(c2nc(-c3cccc4[nH]ccc34)nc3c2OC[C@@H]2COCCN32)CCC1`, the figures for the concentration for half-maximal inhibition (IC50) in experiment [1] and in experiment [2] were 3.16 µM and 10 µM, respectively.

On to `CCCNc1nc2ccccc2n1-c1nc2c(c(C(C)(C)S(C)(=O)=O)n1)OC[C@@H]1COCCN21`, for which the IC50 in experiment [1] was 6.25 µM; in experiment [2], 6.65 µM. Consider `CS(=O)(=O)C1(c2nc(-c3cccc4[nH]ccc34)nc3c2OC[C@@H]2COCCN32)CCNCC1`, for which the IC50 was 1.98 µM in experiment [1] and 4.93 µM in experiment [2].

For the molecule `CNc1nc2ccccc2n1-c1nc2c(c(C3(S(C)(=O)=O)CCOCC3)n1)OCCC1COCCN21` (stereo not given), the figures for the IC50 in experiment [1] and in experiment [2] were at least 50 µM and 10 µM, respectively. For `CNc1nc2ccccc2n1-c1nc2c(c(C(C)(C)S(C)(=O)=O)n1)OC[C@@H]1COCCN21` the same measures were 1.9 µM and 1.51 µM.

For `CC(C)(c1nc(-c2cccc3[nH]ncc23)nc2c1OC[C@H]1COCCN21)S(C)(=O)=O`, the values for the IC50 in experiment [1] and in experiment [2] were 0.4 µM and 4.15 µM, respectively. As for `CS(=O)(=O)C1(c2nc(-c3cccc4[nH]ccc34)nc3c2OCC[C@@H]2COCCN32)CCOCC1`, the IC50 was at least 50 µM in experiment [1] and at least 25 µM in experiment [2]. On to `CS(=O)(=O)C1(c2nc(-c3cccc4[nH]ccc34)nc3c2OC[C@H]2COCCN32)CCOCC1`, for which the IC50 in experiment [1] worked out at 11.5 µM.
